The values below come from US20090048112A1, “Novel Herbicides” (SYNGENTA LIMITED, priority 2005, published 2009).

Series [1] deals with Monocotyledonous and dicotyledonous test plants. Kind of series: Example B3: herbicidal action prior to emergence (pre-emergence), 96-cell seed trays, 1000 g/ha. On the set-up: key: 0 is no damage to plant; 5 is total damage to plant. In kind it is in vivo. The following applies: 9 days after application. How it is done:
Monocotyledonous and dicotyledonous test plants were sown in sterilised standard soil in seed trays each with 96 cells. The seed trays were stored under controlled conditions in a climatic chamber for one day (cultivation at 23° C. during the day and 17° C. at night; 13 hours of light; 50-60% humidity). The chemicals were applied to the soil surface. The application was carried out with an aqueous suspension of the test substances, prepared as a formulation in water with 10% dimethyl sulfoxide (CAS RN 67-68-5), to achieve a field equivalent of 1000 l/ha. The application rate of the test substances was 1000 g/ha. The plants were grown on in the climatic chamber for 9 days (cultivation at 24° C. during the day and 19° C. at night; 13 hours of light; 50-60% humidity). A visual assessment of the herbicidal effect was made at 9 days after application. The following scale was used for assessment: 0, 1, 2, 3, 4 and 5 (where 0 is no damage to plant and 5 is total damage to plant).

The test system is the same in series [2]. Kind of series: Example B1: herbicidal action prior to emergence (pre-emergence), 500 g/ha. In kind it is in vivo. The following applies: 13 days after application, 0 = no damage, 100 = plants completely dead; for ALOMY herbicidal effect (visual assessment, percentage scale): Alopecurus myosuroides (slender foxtail); for AMARE herbicidal effect (visual assessment, percentage scale): Amaranthus retroflexus (redroot pigweed); for ECHCG herbicidal effect (visual assessment, percentage scale): Echinochloa crus-galli (barnyard grass); for STEME herbicidal effect (visual assessment, percentage scale): Stellaria media (chickweed). A digest of the protocol:
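Pre-emergence test with monocot and dicot species sown in standard compost. Compound was track-sprayed onto the soil surface at 500 g/ha in 50% acetone/water with 0.5% Tween 20 (1000 l/ha equivalent). Damage was scored visually 13 days after application on a 0–100% scale, where 100 means plants completely dead.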

Series [3] relates to Echinochloa crus-galli (barnyard grass). The experiment in a line: Example B2: herbicidal action post emergence, 500 g/ha. In kind it is in vivo. The following applies: applied to the foliage, 13 days after application, 0 is no damage to plants, 100 is plants completely dead. How it is done: (§1) Monocotyledonous and dicotyledonous test plants were sown in seed trays in standard compost and were grown for eight days. The trays were watered twice daily or as required. The chemicals were applied by track sprayer to the foliage. The application was carried out with an aqueous suspension of the test substances, prepared as a formulation of 50% acetone in water with 0.5% Tween 20™ (CAS RN 9005-64-5), to achieve a field equivalent of 1000 l/ha. The application rate of the test substances was 500 g/ha. A visual assessment of the herbicidal effect was made at 13 days after application. The following percentage scale was used for assessment: 0, 5, 10, 20, 30, 40, 50, 60, 70, 80, 90, 95, 100 (where O is no damage to plants and 100 is plants are completely dead).

Series [4] has as its system Amaranthus retroflexus (redroot pigweed). The description is as above. In kind it is in vivo. The following applies: applied to the foliage, 13 days after application, 0 is no damage to plants, 100 is plants completely dead. The method, then: as §1
Series [5] has as its system Alopecurus myosuroides (slender foxtail). Described as above. In kind it is in vivo. The following applies: applied to the foliage, 13 days after application, 0 is no damage to plants, 100 is plants completely dead. The method, then:
as §1

Series [6] concerns Stellaria media (chickweed). The description is as above. In kind it is in vivo. The following applies: applied to the foliage, 13 days after application, 0 is no damage to plants, 100 is plants completely dead. The method, then:
as §1

Consider `CC(c1c(C(F)(F)F)nn(C)c1OCC(F)(F)F)S(=O)(=O)c1ncc(Cl)s1` (racemic) [1.096], for which the “AGSTE herbicidal effect (visual assessment, scale 0-5)” value in series [1] (Agrostis tenius (Colonial bentgrass)) worked out at 5. Besides, the “AMARE herbicidal effect (visual assessment, scale 0-5)” value in series [1] (Amaranthus retroflexus (redroot pigweed)) is 5. Moreover, in series [1] (Digitaria sanguinalis (hairy finger-grass)), the “DIGSA herbicidal effect (visual assessment, scale 0-5)” value was found to be 5. For the same compound, the “POATR herbicidal effect (visual assessment, scale 0-5)” value in series [1] (Poa trivialis (rough blue grass)) came out at 5. In series [1] (Setaria italica (foxtail millet)), the “SETIT herbicidal effect (visual assessment, scale 0-5)” value turned out to be 5. In addition, in series [2], the “ALOMY herbicidal effect (visual assessment, percentage scale)” value stood at 95%; the “AMARE herbicidal effect (visual assessment, percentage scale)” value came out at 95%; the “ECHCG herbicidal effect (visual assessment, percentage scale)” value amounted to 95%; the “STEME herbicidal effect (visual assessment, percentage scale)” value is given as 95%. For the same compound, in series [3], the “ECHCG, visual assessment of the herbicidal effect” value (shortened to “ECHCG, visual assessment”) was determined as 80%. Besides, the “AMARE, visual assessment of the herbicidal effect” value (“AMARE, visual assessment” below) in series [4] turned out to be 80%. In series [5], the “ALOMY, visual assessment of the herbicidal effect” value (from here on “ALOMY, visual assessment”) came to 90%. For the same compound, in series [6], the “STEME, visual assessment of the herbicidal effect” value (shortened to “STEME, visual assessment”) is reported as 70%.
What is called melting point is the temperature, or range, at which the solid turns liquid. Turning to `Cn1nc(C(F)(F)F)c(CSc2ncc(C(N)=O)s2)c1OCC(F)(F)F` [1.121, 2-[1-methyl-5-(2,2,2-trifluoro-ethoxy)-3-trifluoromethyl-1H-pyrazol-4-ylmethylsulfanyl]-thiazole-5-carboxylic acid amide], the melting point fell in the range of 118 to 120 °C.
The compound `Cn1nc(C(F)(F)F)c(C(Cl)S(=O)(=O)c2ncc(Br)s2)c1Cl` (centres unmarked) [Compound No. 1.030, 5-bromo-2-[chloro-(5-chloro-1-methyl-3-trifluoromethyl-1H-pyrazol-4-yl)-methanesulfonyl]-thiazole] gave a melting point of 78 to 79.5 °C.
Still for that read-out and setting: the value for `Cn1nc(C(F)(F)F)c(C(F)(F)S(=O)(=O)c2ncc(Br)s2)c1Cl` [Compound No. 1.033, 5-bromo-2-[(5-chloro-1-methyl-3-trifluoromethyl-1H-pyrazol-4-yl)-difluoro-methanesulfonyl]-thiazole] was 186 to 188 °C.
With `Cn1nc(C(F)(F)F)c(CSc2ncc(Cl)s2)c1OC(F)F` [Compound No. 1.056], in series [2], the “ALOMY herbicidal effect (visual assessment, percentage scale)” value worked out at 90%; the “AMARE herbicidal effect (visual assessment, percentage scale)” value is listed as 95%; the “ECHCG herbicidal effect (visual assessment, percentage scale)” value was 95%; the “STEME herbicidal effect (visual assessment, percentage scale)” value came out at 90%. In series [3], the “ECHCG, visual assessment” value came out at 70%. Further, the “AMARE, visual assessment” value in series [4] stood at 70%. Further, the “ALOMY, visual assessment” value in series [5] was 95%. For the same compound, in series [6], the “STEME, visual assessment” value is recorded as 80%.
In the case of `Cn1nc(C(F)(F)F)c(CSc2ncc([N+](=O)[O-])s2)c1OCC(F)(F)F` [Compound No. 1.061], in series [2], the “ALOMY herbicidal effect (visual assessment, percentage scale)” value is reported as 80%; the “AMARE herbicidal effect (visual assessment, percentage scale)” value is 100%; the “ECHCG herbicidal effect (visual assessment, percentage scale)” value amounted to 95%; the “STEME herbicidal effect (visual assessment, percentage scale)” value stood at 95%. Besides, in series [3], the “ECHCG, visual assessment” value is reported as 80%. In series [4], the “AMARE, visual assessment” value was 40%. Further, in series [5], the “ALOMY, visual assessment” value amounted to 40%. Also, the “STEME, visual assessment” value in series [6] came to 40%.
